Measured values as given in ChEMBL document CHEMBL1275354, “Anticonvulsant activity of 2,4(1H)-diarylimidazoles in mice and rats acute seizure models” (Bioorg Med Chem, 2010).
The source made the active and inactive calls.

Legend:
Mus musculus [1] = experiment: Neurotoxicity in ip dosed albino CF1 mouse assessed as minimum dose required to cause toxicity after 0.5 hrs by rotarod test; assay type: organism-based; settings: in vivo
Mus musculus [2] = experiment: Neurotoxicity in albino CF1 mouse assessed as minimal motor impairment at 30 mg/kg, ip after 0.5 hrs by rotarod test; assay type: toxicity, organism-based; design: dose 30 mg/kg, route intraperitoneal; settings: in vivo
Mus musculus [3] = experiment: Anticonvulsant activity in albino CF1 mouse assessed as protection against maximal electroshock-induced seizures at 100 mg/kg, ip after 0.5 hrs; assay type: functional, organism-based; design: dose 100 mg/kg
Mus musculus [4] = experiment: Anticonvulsant activity against subcutaneous metrazole-induced seizures in ip dosed albino CF1 mouse assessed as minimum effective dose after 4 hrs; assay type: functional; settings: albino CF1, 4 h, read-out: MED
Mus musculus [5] = experiment: Anticonvulsant activity in albino CF1 mouse assessed as protection against maximal electroshock-induced seizures at 230 mg/kg, ip after 0.25 hrs; assay type: functional, organism-based; design: dose 230 mg/kg
Mus musculus [6] = experiment: Anticonvulsant activity in albino CF1 mouse assessed as protection against subcutaneous metrazole-induced seizures at 125 mg/kg, ip after 0.25 hrs; assay type: functional, organism-based; design: dose 125 mg/kg
Mus musculus [7] = experiment: Anticonvulsant activity in albino CF1 mouse assessed as protection against subcutaneous metrazole-induced seizures at 250 mg/kg, ip after 0.25 hrs; assay type: functional, organism-based; design: dose 250 mg/kg
Mus musculus [8] = experiment: Neurotoxicity in albino CF1 mouse assessed as minimal motor impairment at 500 mg/kg, ip after 0.25 hrs by rotarod test; assay type: toxicity, organism-based; design: dose 500 mg/kg, route intraperitoneal; settings: in vivo
Mus musculus [9] = experiment: Neurotoxicity in albino CF1 mouse assessed as minimal motor impairment at 350 mg/kg, ip after 0.25 hrs by rotarod test; assay type: toxicity, organism-based; design: dose 350 mg/kg, route intraperitoneal; settings: in vivo
[10] = target: Sodium channel protein type 2 subunit alpha (Homo sapiens, UniProt Q99250); experiment: Inhibition of human NaV1.2 expressed in HEK cells at -60 mV holding potential by patch clamp recording technique; assay type: cell-based, HEK293
Mus musculus [11] = species: Mus musculus; experiment: Protective index, ratio of TD50 for albino CF1 mouse by rotarod test to ED50 for albino CF1 mouse by maximal electroshock seizures test; assay type: functional
Mus musculus [12] = experiment: Anticonvulsant activity ip dosed albino CF1 mouse assessed as protection against subcutaneous metrazole-induced seizures after 0.25 hrs; assay type: functional; settings: albino CF1, 0.25 h
Mus musculus [13] = experiment: Neurotoxicity in ip dosed albino CF1 mouse assessed as minimal motor impairment after 0.25 hrs by rotarod test; assay type: toxicity, organism-based; settings: in vivo
Rattus norvegicus [14] = experiment: Neurotoxicity in albino Sprague-Dawley rat assessed as minimal motor impairment at 30 mg/kg, po by rotarod test; assay type: toxicity, organism-based; design: dose 30 mg/kg, route oral; settings: in vivo
Mus musculus [15] = experiment: Anticonvulsant activity ip dosed albino CF1 mouse assessed as protection against maximal electroshock-induced seizures after 0.25 hrs; assay type: functional
Rattus norvegicus [16] = experiment: Anticonvulsant activity in albino Sprague-Dawley rat assessed as protection against maximal electroshock-induced seizures at 30 mg/kg, po after 0.25 hrs; assay type: functional, organism-based; design: dose 30 mg/kg
Rattus norvegicus [17] = experiment: Anticonvulsant activity in albino Sprague-Dawley rat assessed as protection against maximal electroshock-induced seizures at 30 mg/kg, po after 0.5 hrs; assay type: functional, organism-based; design: dose 30 mg/kg
Rattus norvegicus [18] = experiment: Anticonvulsant activity in albino Sprague-Dawley rat assessed as protection against maximal electroshock-induced seizures at 30 mg/kg, po after 1 hr; assay type: functional, organism-based; design: dose 30 mg/kg
Rattus norvegicus [19] = experiment: Anticonvulsant activity in albino Sprague-Dawley rat assessed as protection against maximal electroshock-induced seizures at 30 mg/kg, po after 2 hrs; assay type: functional, organism-based; design: dose 30 mg/kg
Rattus norvegicus [20] = experiment: Anticonvulsant activity in albino Sprague-Dawley rat assessed as protection against maximal electroshock-induced seizures at 30 mg/kg, po after 4 hrs; assay type: functional, organism-based; design: dose 30 mg/kg
Mus musculus [21] = experiment: Neurotoxicity in albino CF1 mouse assessed as minimal motor impairment at 30 mg/kg, ip after 4 hrs by rotarod test; assay type: toxicity, organism-based; design: dose 30 mg/kg, route intraperitoneal; settings: in vivo
Mus musculus [22] = experiment: Neurotoxicity in albino CF1 mouse assessed as minimal motor impairment at 100 mg/kg, ip after 0.5 hrs by rotarod test; assay type: toxicity, organism-based; design: dose 100 mg/kg, route intraperitoneal; settings: in vivo
Mus musculus [23] = experiment: Neurotoxicity in albino CF1 mouse assessed as minimal motor impairment at 100 mg/kg, ip after 4 hrs by rotarod test; assay type: toxicity, organism-based; design: dose 100 mg/kg, route intraperitoneal; settings: in vivo
Mus musculus [24] = experiment: Neurotoxicity in albino CF1 mouse assessed as minimal motor impairment at 300 mg/kg, ip after 4 hrs by rotarod test; assay type: toxicity, organism-based; design: dose 300 mg/kg, route intraperitoneal; settings: in vivo
Mus musculus [25] = experiment: Anticonvulsant activity in albino CF1 mouse assessed as protection against maximal electroshock-induced seizures at 100 mg/kg, ip after 4 hrs; assay type: functional, organism-based; design: dose 100 mg/kg
Mus musculus [26] = experiment: Anticonvulsant activity in albino CF1 mouse assessed as protection against maximal electroshock-induced seizures at 300 mg/kg, ip after 0.5 hrs; assay type: functional, organism-based; design: dose 300 mg/kg
Mus musculus [27] = experiment: Anticonvulsant activity in albino CF1 mouse assessed as protection against maximal electroshock-induced seizures at 300 mg/kg, ip after 4 hrs; assay type: functional, organism-based; design: dose 300 mg/kg
Mus musculus [28] = experiment: Anticonvulsant activity in albino CF1 mouse assessed as protection against subcutaneous metrazole-induced seizures at 30 mg/kg, ip after 0.5 hrs; assay type: functional, organism-based; design: dose 30 mg/kg
Mus musculus [29] = experiment: Anticonvulsant activity in albino CF1 mouse assessed as protection against subcutaneous metrazole-induced seizures at 30 mg/kg, ip after 4 hrs; assay type: functional, organism-based; design: dose 30 mg/kg
Mus musculus [30] = experiment: Anticonvulsant activity in albino CF1 mouse assessed as protection against subcutaneous metrazole-induced seizures at 100 mg/kg, ip after 0.5 hrs; assay type: functional, organism-based; design: dose 100 mg/kg
Mus musculus [31] = experiment: Anticonvulsant activity in albino CF1 mouse assessed as protection against subcutaneous metrazole-induced seizures at 100 mg/kg, ip after 4 hrs; assay type: functional, organism-based; design: dose 100 mg/kg
Mus musculus [32] = experiment: Anticonvulsant activity in albino CF1 mouse assessed as protection against subcutaneous metrazole-induced seizures at 300 mg/kg, ip after 0.5 hrs; assay type: functional, organism-based; design: dose 300 mg/kg
Mus musculus [33] = experiment: Anticonvulsant activity in albino CF1 mouse assessed as protection against subcutaneous metrazole-induced seizures at 300 mg/kg, ip after 4 hrs; assay type: functional, organism-based; design: dose 300 mg/kg
Mus musculus [34] = experiment: Neurotoxicity in albino CF1 mouse assessed as minimal motor impairment at 30 to 300 mg/kg, po after 4 hrs by rotarod test; assay type: toxicity, organism-based; design: dose 30-300 mg/kg, route oral; settings: in vivo
Mus musculus [35] = experiment: Anticonvulsant activity in albino CF1 mouse assessed as protection against maximal electroshock-induced seizures at 30 mg/kg, ip after 0.5 hrs; assay type: functional, organism-based; design: dose 30 mg/kg
Mus musculus [36] = experiment: Anticonvulsant activity in albino CF1 mouse assessed as protection against maximal electroshock-induced seizures at 30 mg/kg, ip after 4 hrs; assay type: functional, organism-based; design: dose 30 mg/kg
Mus musculus [37] = experiment: Neurotoxicity in ip dosed albino CF1 mouse assessed as minimum dose required to cause toxicity after 4 hrs by rotarod test; assay type: organism-based; settings: in vivo
Mus musculus [38] = experiment: Anticonvulsant activity against maximal electroshock-induced seizures in ip dosed albino CF1 mouse assessed as minimum effective dose after 0.5 hrs; assay type: functional; settings: read-out: MED
Mus musculus [39] = experiment: Anticonvulsant activity against maximal electroshock-induced seizures in ip dosed albino CF1 mouse assessed as minimum effective dose after 4 hrs; assay type: functional; settings: read-out: MED
Mus musculus [40] = experiment: Anticonvulsant activity against subcutaneous metrazole-induced seizures in ip dosed albino CF1 mouse assessed as minimum effective dose after 0.5 hrs; assay type: functional; settings: albino CF1, 0.5 h, read-out: MED
Mus musculus [41] = experiment: Neurotoxicity in albino CF1 mouse assessed as minimal motor impairment at 30 to 300 mg/kg, ip after 0.5 hrs by rotarod test; settings: in vivo

Sequence of Sodium channel protein type 2 subunit alpha (Q99250 whole entry): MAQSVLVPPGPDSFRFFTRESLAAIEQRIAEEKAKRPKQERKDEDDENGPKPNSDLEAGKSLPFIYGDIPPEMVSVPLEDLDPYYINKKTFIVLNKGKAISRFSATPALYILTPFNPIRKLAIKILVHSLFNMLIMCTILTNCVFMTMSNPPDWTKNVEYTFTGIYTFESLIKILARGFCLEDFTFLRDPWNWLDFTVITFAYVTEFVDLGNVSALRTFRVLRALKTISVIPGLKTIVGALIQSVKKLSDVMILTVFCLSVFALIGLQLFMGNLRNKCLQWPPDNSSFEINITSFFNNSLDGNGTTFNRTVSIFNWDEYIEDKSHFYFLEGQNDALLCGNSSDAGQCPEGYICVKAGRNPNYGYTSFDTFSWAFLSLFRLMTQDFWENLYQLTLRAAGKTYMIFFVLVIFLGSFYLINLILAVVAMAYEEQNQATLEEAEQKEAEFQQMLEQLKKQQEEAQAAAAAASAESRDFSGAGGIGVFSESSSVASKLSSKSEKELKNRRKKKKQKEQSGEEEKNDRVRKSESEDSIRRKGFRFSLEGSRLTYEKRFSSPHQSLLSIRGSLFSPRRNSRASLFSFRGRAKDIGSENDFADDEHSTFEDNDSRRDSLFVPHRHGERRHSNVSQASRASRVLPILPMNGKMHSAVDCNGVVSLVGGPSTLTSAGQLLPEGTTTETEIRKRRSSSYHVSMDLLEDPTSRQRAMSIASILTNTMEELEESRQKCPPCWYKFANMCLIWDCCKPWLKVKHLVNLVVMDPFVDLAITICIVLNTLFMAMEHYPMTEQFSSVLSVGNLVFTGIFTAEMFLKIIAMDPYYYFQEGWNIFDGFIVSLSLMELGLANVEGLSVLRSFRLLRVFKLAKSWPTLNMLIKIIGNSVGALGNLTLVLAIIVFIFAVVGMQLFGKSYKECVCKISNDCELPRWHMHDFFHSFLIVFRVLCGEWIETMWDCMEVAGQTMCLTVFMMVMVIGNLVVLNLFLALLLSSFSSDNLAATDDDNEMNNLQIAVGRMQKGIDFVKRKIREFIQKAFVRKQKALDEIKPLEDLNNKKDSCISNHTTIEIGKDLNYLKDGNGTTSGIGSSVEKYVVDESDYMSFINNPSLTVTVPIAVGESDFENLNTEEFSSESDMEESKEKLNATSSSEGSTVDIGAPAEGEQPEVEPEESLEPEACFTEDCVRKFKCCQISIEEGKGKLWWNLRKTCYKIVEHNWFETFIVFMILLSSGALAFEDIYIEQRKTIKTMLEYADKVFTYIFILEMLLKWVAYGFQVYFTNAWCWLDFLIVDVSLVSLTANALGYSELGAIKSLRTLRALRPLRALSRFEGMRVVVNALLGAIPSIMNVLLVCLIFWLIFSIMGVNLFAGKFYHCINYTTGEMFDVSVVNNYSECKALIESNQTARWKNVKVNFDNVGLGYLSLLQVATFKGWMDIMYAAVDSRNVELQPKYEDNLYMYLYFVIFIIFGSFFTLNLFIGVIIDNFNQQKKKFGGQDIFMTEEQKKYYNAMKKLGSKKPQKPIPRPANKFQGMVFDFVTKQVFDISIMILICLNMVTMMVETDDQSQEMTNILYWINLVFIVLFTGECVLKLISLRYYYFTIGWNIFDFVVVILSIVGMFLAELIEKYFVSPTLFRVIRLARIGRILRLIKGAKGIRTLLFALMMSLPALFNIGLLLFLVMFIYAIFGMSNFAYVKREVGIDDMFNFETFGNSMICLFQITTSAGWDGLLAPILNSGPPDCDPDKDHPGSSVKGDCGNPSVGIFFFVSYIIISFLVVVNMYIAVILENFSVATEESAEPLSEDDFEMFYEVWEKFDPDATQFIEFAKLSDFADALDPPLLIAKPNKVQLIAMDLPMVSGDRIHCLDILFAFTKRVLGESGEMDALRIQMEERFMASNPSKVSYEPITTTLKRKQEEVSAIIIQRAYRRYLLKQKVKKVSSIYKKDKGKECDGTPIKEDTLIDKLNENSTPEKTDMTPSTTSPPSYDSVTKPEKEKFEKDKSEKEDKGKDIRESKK

Clc1cccc(-c2c[nH]c(-c3ccccc3)n2)c1
100 mg/kg: MED (Mus musculus [1]) | minimal effective dose (Mus musculus [39])
> 500 mg/kg: TD50 (Mus musculus [13])
active: Activity (Mus musculus [3]) | Activity (Mus musculus [5]) | Activity (Mus musculus [26]) | Activity (Mus musculus [27])
> 300 mg/kg: minimal effective dose (Mus musculus [4]) | MED (Mus musculus [37]) | minimal effective dose (Mus musculus [40])
> 250 mg/kg: ED50 (Mus musculus [12])
>3.6: PI (Mus musculus [11])
inactive: Activity (Mus musculus [6]) | Activity (Mus musculus [7]) | Activity (Rattus norvegicus [16]) | Activity (Rattus norvegicus [17]) | Activity (Rattus norvegicus [18]) | Activity (Rattus norvegicus [19]) | Activity (Rattus norvegicus [20]) | Activity (Mus musculus [25]) | Activity (Mus musculus [28]) | Activity (Mus musculus [29]) | Activity (Mus musculus [30]) | Activity (Mus musculus [31]) | Activity (Mus musculus [32]) | Activity (Mus musculus [33]) | Activity (Mus musculus [35]) | Activity (Mus musculus [36])
Non-toxic: Activity (Mus musculus [2]) | Activity (Mus musculus [8]) | Activity (Mus musculus [9]) | Activity (Rattus norvegicus [14]) | Activity (Mus musculus [21]) | Activity (Mus musculus [22]) | Activity (Mus musculus [23]) | Activity (Mus musculus [24]) | Activity (Mus musculus [34]) | Activity (Mus musculus [41])
> 30 mg/kg: minimal effective dose (Mus musculus [38])
17.9 µM: IC50 [10]
137 mg/kg: ED50 (Mus musculus [15])
